Laboratory results published in PubChem BioAssay AID1963829 (Molecular Pharmacology Branch, DTP, NCI, 2024).
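Further: spheroids exposed to drugs for seven days before viability read; 100% = DMSO vehicle control wells.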

Each molecule was assayed on 935938-334-R-J1-PDC complex spheroid viability (assay: Anticancer human tumor 935938-334-R-J1-PDC patient-derived small intestine adenocarcinoma cell line growth inhibition [POLQ]). Settings: second compound 10 µM; first compound 0.00316 µM; active compounds read low.
How it was run: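 Patient-derived tumour cells were co-cultured with HUVEC and mesenchymal stem cells as multicellular spheroids at 37 °C. They were treated with POLQ inhibitors (novobiocin, ART-558, RP6685) alone or combined with other agents. Top concentrations were at or near clinical Cmax (otherwise 10 microM; SN-38 at 1 microM), decreasing in half-log steps.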
For `C=CCn1c(=O)c2cnc(Nc3ccc(N4CCN(C)CC4)cc3)nc2n1-c1cccc(C(C)(C)O)n1` + COC1C(OC(N)=O)C(O)C(Oc2ccc3c(O)c(NC(=O)c4ccc(O)c(CC=C(C)C)c4)c(=O)oc3c2C)OC1(C)C, the viability, T/C was 90.5%.

Same assay, conditions: second compound 10 µM; first compound 0.01 µM; active compounds read low
In the case of `Cn1ncnc1[C@H]1c2n[nH]c(=O)c3cc(F)cc(c23)N[C@@H]1c1ccc(F)cc1` + COC1C(OC(N)=O)C(O)C(Oc2ccc3c(O)c(NC(=O)c4ccc(O)c(CC=C(C)C)c4)c(=O)oc3c2C)OC1(C)C, the viability, T/C is reported as 105%. Work on `CCc1c2c(nc3ccc(O)cc13)-c1cc3c(c(=O)n1C2)COC(=O)[C@]3(O)CC` + Nc1ccc(C#CCN(C(=O)Cc2ncc(C(F)(F)F)cc2C(F)(F)F)c2ccc(F)cc2)nn1 yielded a viability, T/C of 67.9%. In the case of `C=CCn1c(=O)c2cnc(Nc3ccc(N4CCN(C)CC4)cc3)nc2n1-c1cccc(C(C)(C)O)n1` + COC1C(OC(N)=O)C(O)C(Oc2ccc3c(O)c(NC(=O)c4ccc(O)c(CC=C(C)C)c4)c(=O)oc3c2C)OC1(C)C, the viability, T/C is reported as 115%.

Same assay, conditions: second compound 10 µM; first compound 0.0316 µM; active compounds read low
`Cn1ncnc1[C@H]1c2n[nH]c(=O)c3cc(F)cc(c23)N[C@@H]1c1ccc(F)cc1` + COC1C(OC(N)=O)C(O)C(Oc2ccc3c(O)c(NC(=O)c4ccc(O)c(CC=C(C)C)c4)c(=O)oc3c2C)OC1(C)C was tested, and the viability, T/C was 78.7%. Work on `CCc1c2c(nc3ccc(O)cc13)-c1cc3c(c(=O)n1C2)COC(=O)[C@]3(O)CC` + Nc1ccc(C#CCN(C(=O)Cc2ncc(C(F)(F)F)cc2C(F)(F)F)c2ccc(F)cc2)nn1 yielded a viability, T/C of 41%. Work on `COc1ccc([C@@H](O)c2cc(-c3ncnc4cc(N5CCOCC5)ccc34)c(F)cc2Cl)nn1` + Nc1ccc(C#CCN(C(=O)Cc2ncc(C(F)(F)F)cc2C(F)(F)F)c2ccc(F)cc2)nn1 yielded a viability, T/C of 81.1%. Work on `C=CCn1c(=O)c2cnc(Nc3ccc(N4CCN(C)CC4)cc3)nc2n1-c1cccc(C(C)(C)O)n1` + COC1C(OC(N)=O)C(O)C(Oc2ccc3c(O)c(NC(=O)c4ccc(O)c(CC=C(C)C)c4)c(=O)oc3c2C)OC1(C)C yielded a viability, T/C of 120%. Molecule `O=C(Nc1ccc(O)c(NS(=O)(=O)c2ccc(F)cc2)c1)c1ccc(-c2ccccc2)cc1` + Nc1ccc(C#CCN(C(=O)Cc2ncc(C(F)(F)F)cc2C(F)(F)F)c2ccc(F)cc2)nn1 has a viability, T/C of 127%. In the case of `C=CC(=O)N1CCN(c2nc(=O)n(-c3c(C)ccnc3C(C)C)c3nc(-c4c(O)cccc4F)c(F)cc23)C(C)C1` (configuration not stated) + Nc1ccc(C#CCN(C(=O)Cc2ncc(C(F)(F)F)cc2C(F)(F)F)c2ccc(F)cc2)nn1, the viability, T/C is reported as 88.2%.

Same assay, conditions: second compound 10 µM; first compound 0.1 µM; active compounds read low
`Cn1ncnc1[C@H]1c2n[nH]c(=O)c3cc(F)cc(c23)N[C@@H]1c1ccc(F)cc1` + COC1C(OC(N)=O)C(O)C(Oc2ccc3c(O)c(NC(=O)c4ccc(O)c(CC=C(C)C)c4)c(=O)oc3c2C)OC1(C)C gave a viability, T/C of 95.8%. Work on `CCc1c2c(nc3ccc(O)cc13)-c1cc3c(c(=O)n1C2)COC(=O)[C@]3(O)CC` + Nc1ccc(C#CCN(C(=O)Cc2ncc(C(F)(F)F)cc2C(F)(F)F)c2ccc(F)cc2)nn1 yielded a viability, T/C of 37.3%. `COc1ccc([C@@H](O)c2cc(-c3ncnc4cc(N5CCOCC5)ccc34)c(F)cc2Cl)nn1` + Nc1ccc(C#CCN(C(=O)Cc2ncc(C(F)(F)F)cc2C(F)(F)F)c2ccc(F)cc2)nn1 was tested, and the viability, T/C was 83.6%. For `C=CCn1c(=O)c2cnc(Nc3ccc(N4CCN(C)CC4)cc3)nc2n1-c1cccc(C(C)(C)O)n1` + COC1C(OC(N)=O)C(O)C(Oc2ccc3c(O)c(NC(=O)c4ccc(O)c(CC=C(C)C)c4)c(=O)oc3c2C)OC1(C)C, the viability, T/C was 86.7%. Work on `O=C(Nc1ccc(O)c(NS(=O)(=O)c2ccc(F)cc2)c1)c1ccc(-c2ccccc2)cc1` + Nc1ccc(C#CCN(C(=O)Cc2ncc(C(F)(F)F)cc2C(F)(F)F)c2ccc(F)cc2)nn1 yielded a viability, T/C of 85.6%. Work on `C=CC(=O)N1CCN(c2nc(=O)n(-c3c(C)ccnc3C(C)C)c3nc(-c4c(O)cccc4F)c(F)cc23)C(C)C1` (configuration not stated) + Nc1ccc(C#CCN(C(=O)Cc2ncc(C(F)(F)F)cc2C(F)(F)F)c2ccc(F)cc2)nn1 yielded a viability, T/C of 95.8%.

Same assay, conditions: second compound 10 µM; first compound 0.316 µM; active compounds read low
With `CCc1c2c(nc3ccc(O)cc13)-c1cc3c(c(=O)n1C2)COC(=O)[C@]3(O)CC` + Nc1ccc(C#CCN(C(=O)Cc2ncc(C(F)(F)F)cc2C(F)(F)F)c2ccc(F)cc2)nn1 the viability, T/C was 31%. With `COc1ccc([C@@H](O)c2cc(-c3ncnc4cc(N5CCOCC5)ccc34)c(F)cc2Cl)nn1` + Nc1ccc(C#CCN(C(=O)Cc2ncc(C(F)(F)F)cc2C(F)(F)F)c2ccc(F)cc2)nn1 the viability, T/C was 118%. `C=CCn1c(=O)c2cnc(Nc3ccc(N4CCN(C)CC4)cc3)nc2n1-c1cccc(C(C)(C)O)n1` + COC1C(OC(N)=O)C(O)C(Oc2ccc3c(O)c(NC(=O)c4ccc(O)c(CC=C(C)C)c4)c(=O)oc3c2C)OC1(C)C was tested, and the viability, T/C was 57.9%. In the case of `O=C(Nc1ccc(O)c(NS(=O)(=O)c2ccc(F)cc2)c1)c1ccc(-c2ccccc2)cc1` + Nc1ccc(C#CCN(C(=O)Cc2ncc(C(F)(F)F)cc2C(F)(F)F)c2ccc(F)cc2)nn1, the viability, T/C is reported as 101%. `C=CC(=O)N1CCN(c2nc(=O)n(-c3c(C)ccnc3C(C)C)c3nc(-c4c(O)cccc4F)c(F)cc23)C(C)C1` (configuration not stated) + Nc1ccc(C#CCN(C(=O)Cc2ncc(C(F)(F)F)cc2C(F)(F)F)c2ccc(F)cc2)nn1 showed a viability, T/C of 116%.

Same assay, conditions: second compound 10 µM; first compound 1 µM; active compounds read low
For `CCc1c2c(nc3ccc(O)cc13)-c1cc3c(c(=O)n1C2)COC(=O)[C@]3(O)CC` + Nc1ccc(C#CCN(C(=O)Cc2ncc(C(F)(F)F)cc2C(F)(F)F)c2ccc(F)cc2)nn1, the viability, T/C was 32.2%. With `COc1ccc([C@@H](O)c2cc(-c3ncnc4cc(N5CCOCC5)ccc34)c(F)cc2Cl)nn1` + Nc1ccc(C#CCN(C(=O)Cc2ncc(C(F)(F)F)cc2C(F)(F)F)c2ccc(F)cc2)nn1 the viability, T/C was 60.5%. `C=CCn1c(=O)c2cnc(Nc3ccc(N4CCN(C)CC4)cc3)nc2n1-c1cccc(C(C)(C)O)n1` + COC1C(OC(N)=O)C(O)C(Oc2ccc3c(O)c(NC(=O)c4ccc(O)c(CC=C(C)C)c4)c(=O)oc3c2C)OC1(C)C showed a viability, T/C of 24.5%. Molecule `O=C(Nc1ccc(O)c(NS(=O)(=O)c2ccc(F)cc2)c1)c1ccc(-c2ccccc2)cc1` + Nc1ccc(C#CCN(C(=O)Cc2ncc(C(F)(F)F)cc2C(F)(F)F)c2ccc(F)cc2)nn1 has a viability, T/C of 94.5%. Work on `C=CC(=O)N1CCN(c2nc(=O)n(-c3c(C)ccnc3C(C)C)c3nc(-c4c(O)cccc4F)c(F)cc23)C(C)C1` (configuration not stated) + Nc1ccc(C#CCN(C(=O)Cc2ncc(C(F)(F)F)cc2C(F)(F)F)c2ccc(F)cc2)nn1 yielded a viability, T/C of 89.3%.

Same assay, conditions: second compound 10 µM; first compound 3.16 µM; active compounds read low
In the case of `COc1ccc([C@@H](O)c2cc(-c3ncnc4cc(N5CCOCC5)ccc34)c(F)cc2Cl)nn1` + Nc1ccc(C#CCN(C(=O)Cc2ncc(C(F)(F)F)cc2C(F)(F)F)c2ccc(F)cc2)nn1, the viability, T/C is reported as 54%. For `O=C(Nc1ccc(O)c(NS(=O)(=O)c2ccc(F)cc2)c1)c1ccc(-c2ccccc2)cc1` + Nc1ccc(C#CCN(C(=O)Cc2ncc(C(F)(F)F)cc2C(F)(F)F)c2ccc(F)cc2)nn1, the viability, T/C was 99.5%. `C=CC(=O)N1CCN(c2nc(=O)n(-c3c(C)ccnc3C(C)C)c3nc(-c4c(O)cccc4F)c(F)cc23)C(C)C1` (configuration not stated) + Nc1ccc(C#CCN(C(=O)Cc2ncc(C(F)(F)F)cc2C(F)(F)F)c2ccc(F)cc2)nn1 showed a viability, T/C of 119%.

Same assay, conditions: second compound 10 µM; first compound 10 µM; active compounds read low
`COc1ccc([C@@H](O)c2cc(-c3ncnc4cc(N5CCOCC5)ccc34)c(F)cc2Cl)nn1` + Nc1ccc(C#CCN(C(=O)Cc2ncc(C(F)(F)F)cc2C(F)(F)F)c2ccc(F)cc2)nn1 was tested, and the viability, T/C was 33.1%. `O=C(Nc1ccc(O)c(NS(=O)(=O)c2ccc(F)cc2)c1)c1ccc(-c2ccccc2)cc1` + Nc1ccc(C#CCN(C(=O)Cc2ncc(C(F)(F)F)cc2C(F)(F)F)c2ccc(F)cc2)nn1 was tested, and the viability, T/C was 35.9%. Work on `C=CC(=O)N1CCN(c2nc(=O)n(-c3c(C)ccnc3C(C)C)c3nc(-c4c(O)cccc4F)c(F)cc23)C(C)C1` (configuration not stated) + Nc1ccc(C#CCN(C(=O)Cc2ncc(C(F)(F)F)cc2C(F)(F)F)c2ccc(F)cc2)nn1 yielded a viability, T/C of 138%.
